Results reported in ChEMBL document CHEMBL1123605, “Renin inhibitors. Dipeptide analogues of angiotensinogen incorporating transition-state, nonpeptidic replacements at the scissile bond” (J Med Chem, 1987).

Experiments:
[1] = target: T1, Renin (Rattus norvegicus) (UniProt P08424); experiment: Percentage inhibition against rat plasma renin at 1.0x10E-5M; assay type: cell-free
T1 sequence (whole entry): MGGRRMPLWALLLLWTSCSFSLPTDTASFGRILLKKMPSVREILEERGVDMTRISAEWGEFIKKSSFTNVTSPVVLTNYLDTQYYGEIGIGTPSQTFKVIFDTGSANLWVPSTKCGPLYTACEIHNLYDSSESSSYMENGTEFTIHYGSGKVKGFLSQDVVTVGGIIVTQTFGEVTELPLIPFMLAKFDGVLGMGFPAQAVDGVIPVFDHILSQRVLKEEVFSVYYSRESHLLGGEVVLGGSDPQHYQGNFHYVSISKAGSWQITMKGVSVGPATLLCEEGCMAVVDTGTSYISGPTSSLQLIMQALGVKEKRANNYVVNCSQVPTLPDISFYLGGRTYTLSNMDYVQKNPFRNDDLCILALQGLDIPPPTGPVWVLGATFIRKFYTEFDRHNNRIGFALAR

Pepsin A (Sus scrofa) = Pepsin A (Sus scrofa) (UniProt P00791); experiment: Percentage inhibition against pepsin; NI=no inhibition at 1.0x10E-5M
Sequence of Pepsin A (Sus scrofa) (P00791 60-385 limits assumed): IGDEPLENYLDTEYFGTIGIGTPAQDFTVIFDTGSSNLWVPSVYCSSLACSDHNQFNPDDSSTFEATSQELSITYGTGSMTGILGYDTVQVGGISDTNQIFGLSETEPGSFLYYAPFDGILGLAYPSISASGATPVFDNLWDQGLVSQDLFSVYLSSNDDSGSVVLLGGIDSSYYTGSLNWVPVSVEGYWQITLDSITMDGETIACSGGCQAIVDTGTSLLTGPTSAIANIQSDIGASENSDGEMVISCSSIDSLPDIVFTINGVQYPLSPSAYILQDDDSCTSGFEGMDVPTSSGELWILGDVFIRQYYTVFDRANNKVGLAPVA

Cathepsin D (Bos taurus) = target: T2, Cathepsin D (Bos taurus) (UniProt P80209); experiment: Percentage inhibition against cathepsin D at 1.0x10E-5M
T2 sequence (whole entry): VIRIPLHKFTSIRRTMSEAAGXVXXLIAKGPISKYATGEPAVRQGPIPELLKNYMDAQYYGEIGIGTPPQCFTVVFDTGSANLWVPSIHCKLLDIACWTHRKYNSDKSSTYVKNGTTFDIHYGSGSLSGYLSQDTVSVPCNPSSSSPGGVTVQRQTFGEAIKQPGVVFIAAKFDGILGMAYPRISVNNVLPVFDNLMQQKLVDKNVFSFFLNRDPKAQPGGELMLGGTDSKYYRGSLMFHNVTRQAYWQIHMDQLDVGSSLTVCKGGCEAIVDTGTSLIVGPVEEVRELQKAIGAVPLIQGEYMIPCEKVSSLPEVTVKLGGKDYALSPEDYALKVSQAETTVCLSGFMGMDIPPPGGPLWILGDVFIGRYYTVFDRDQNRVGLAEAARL

Cathepsin D = target: T3, Cathepsin D (Bos taurus, UniProt P80209); experiment: Inhibition against cathepsin D
T3 sequence (P80209 whole entry): T2 sequence (whole entry)

Renin [2] = target: T4, Renin (Rattus norvegicus, UniProt P08424); experiment: Inhibition against rat plasma renin.; assay type: cell-free
T4 sequence (P08424 whole entry): T1 sequence (whole entry)

Renin [3] = target: T5, Renin (Homo sapiens, UniProt P00797); experiment: Inhibition against human plasma renin; assay type: cell-free
T5 sequence (P00797 whole entry): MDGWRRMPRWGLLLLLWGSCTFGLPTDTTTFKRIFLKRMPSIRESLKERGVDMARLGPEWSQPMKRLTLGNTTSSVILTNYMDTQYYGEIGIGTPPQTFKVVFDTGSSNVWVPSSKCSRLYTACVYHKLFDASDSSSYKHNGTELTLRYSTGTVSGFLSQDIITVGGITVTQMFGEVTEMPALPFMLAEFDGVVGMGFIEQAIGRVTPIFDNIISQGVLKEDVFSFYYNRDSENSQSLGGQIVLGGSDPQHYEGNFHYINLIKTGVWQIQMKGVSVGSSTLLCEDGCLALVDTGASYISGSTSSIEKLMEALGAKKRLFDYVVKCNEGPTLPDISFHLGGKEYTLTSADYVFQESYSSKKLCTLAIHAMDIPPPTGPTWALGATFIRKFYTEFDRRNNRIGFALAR

Renin [4] = target: T5, Renin; experiment: Inhibition against purified human renal renin
Renin [5] = target: T5, Renin; experiment: Inhibition against purified human renin
Renin [6] = target: T4, Renin; experiment: Inhibition against rat plasma renin; assay type: cell-free
[7] = target: T1, Renin (Rattus norvegicus); experiment: Percentage inhibition against rat plasma renin; assay type: cell-free; settings: concentration not given here

Row | SMILES | inhibition [1] [%] | inhibition (Pepsin A (Sus scrofa)) | inhibition (Cathepsin D (Bos taurus)) [%] | IC50 (Cathepsin D) [µM] | IC50 (Renin [2]) [µM] | IC50 (Renin [3]) [µM] | IC50 (Renin [4]) [µM] | IC50 (Renin [5]) [µM] | other results
1 | CCOC(=O)N[C@@H](Cc1ccccc1)C(=O)N[C@@H](Cc1c[nH]cn1)C(=O)N[C@@H](CC1CCCCC1)[C@@H](O)CCS(=O)(=O)C(C)C | 12 | No inhibition | 0 |  |  |  |  |  | 
2 | COc1ccc(C[C@H](NC(=O)OC(C)(C)C)C(=O)N[C@@H](Cc2c[nH]cn2)C(=O)N[C@@H](CC2CCCCC2)[C@@H](O)CCS(=O)(=O)C(C)C)cc1 | 0 | No inhibition | 0 | > 10 | > 10 | 0.041 | 0.0091 |  | 
3 | CCS(=O)(=O)CC[C@H](O)[C@H](CC1CCCCC1)NC(=O)[C@H](C)NC(=O)[C@H](Cc1ccccc1)NC(=O)OC(C)(C)C | 2 | No inhibition | 18 | > 10 | > 10 | 1 | 0.14 |  | 
4 | CC(C)C[C@H](NC(=O)[C@H](Cc1ccccc1)NC(=O)OC(C)(C)C)C(=O)N[C@@H](CC1CCCCC1)[C@@H](O)CCS(=O)(=O)C(C)C | 18 | No inhibition |  | 8 | > 10 | 0.077 | 0.014 |  | 
5 | CC(C)CSCC[C@H](O)[C@H](CC(C)C)NC(=O)[C@H](C)NC(=O)[C@H](Cc1ccccc1)NC(=O)OC(C)(C)C |  |  |  |  |  |  |  | 4.1 | 
6 | CCS(=O)(=O)CC[C@H](O)[C@H](CC1CCCCC1)NC(=O)[C@H](Cc1cnc[nH]1)NC(=O)[C@H](Cc1ccccc1)NC(=O)OC(C)(C)C |  |  |  | > 10 |  | 0.028 |  | 0.0076 | IC50 (Renin [6]): > 10 µM
7 | CC(C)S(=O)(=O)CC[C@H](O)[C@H](CC1CCCCC1)NC(=O)[C@H](C)NC(=O)[C@H](Cc1ccccc1)NC(=O)OC(C)(C)C | 12 | No inhibition | 22 | > 10 | > 10 | 0.85 | 0.076 |  | 
8 | CC(C)CCC(=O)CC[C@H](O)[C@H](CC(C)C)NC(=O)[C@H](C)NC(=O)[C@H](Cc1ccccc1)NC(=O)OC(C)(C)C |  |  |  |  |  |  |  | 2.4 | 
9 | CC(C)S(=O)(=O)CC[C@H](O)[C@H](CC1CCCCC1)NC(=O)[C@H](Cc1c[nH]cn1)NC(=O)[C@H](Cc1ccccc1)NC(=O)CC(C)(C)C | 30 | No inhibition | 0 | > 10 | > 10 | 0.019 | 0.006 |  | 
10 | CC(C)S(=O)(=O)CC[C@H](O)[C@H](CC1CCCCC1)NC(=O)[C@H](Cc1c[nH]cn1)NC(=O)[C@H](Cc1ccccc1)NC(=O)OC(C)(C)C |  |  | 0 | 10 |  | 0.027 |  | 0.0076 | inhibition [7]: 11%; IC50 (Renin [6]): 10 µM
11 | CCS(=O)(=O)CC[C@H](O)[C@H](CC1CCCCC1)NC(=O)[C@H](Cc1c[nH]cn1)NC(=O)[C@H](Cc1ccccc1)NC(=O)OC(C)(C)C |  |  | 0 |  |  |  |  |  | inhibition [7]: 0%
12 | CC(C)C[C@H](NC(=O)[C@H](C)NC(=O)[C@H](Cc1ccccc1)NC(=O)OC(C)(C)C)[C@@H](O)CCSCCc1ccccc1 |  |  |  |  |  |  |  | 4.2 | 
13 | CC(C)C[C@H](NC(=O)[C@H](C)NC(=O)[C@H](Cc1ccccc1)NC(=O)OC(C)(C)C)[C@@H](O)CCSC(C)C |  |  |  |  |  |  |  | 4.8 | 
14 | CC[C@H](C)[C@H](NC(=O)[C@@H](NC(O)[C@H](CC(C)C)NC(=O)[C@H](Cc1c[nH]cn1)NC(=O)[C@H](Cc1ccccc1)NC(=O)[C@@H]1CCCN1C(=O)[C@H](Cc1c[nH]cn1)NC(=O)OC(C)(C)C)C(C)C)C(=O)N[C@@H](Cc1c[nH]cn1)C(=O)O (some centres not stated) |  |  |  |  |  | 0.0007 |  |  | 
15 | CC(C)C[C@H](NC(=O)[C@H](C)NC(=O)[C@H](Cc1ccccc1)NC(=O)OC(C)(C)C)[C@@H](O)CCS(=O)(=O)CC(C)C |  |  |  |  |  |  |  | 3.2 | 
16 | CCOC(=O)N[C@@H](Cc1ccccc1)C(=O)N[C@@H](Cc1cnc[nH]1)C(=O)N[C@@H](CC1CCCCC1)[C@@H](O)CCS(=O)(=O)C(C)C |  |  |  | > 10 | > 10 | 0.023 | 0.01 |  | 
17 | CC(C)CCSCC[C@H](O)[C@H](CC(C)C)NC(=O)[C@H](C)NC(=O)[C@H](Cc1ccccc1)NC(=O)OC(C)(C)C |  |  |  |  |  |  |  | 5.5 | 
18 | CC(C)S(=O)(=O)CC[C@H](O)[C@H](CC1CCCCC1)NC(=O)[C@H](Cc1ccccc1)NC(=O)[C@H](Cc1ccccc1)NC(=O)OC(C)(C)C | 26 | No inhibition | 0 | > 10 | > 10 | 0.34 | 0.02 |  | 
19 | CC(C)CCC(O)CC[C@H](O)[C@H](CC(C)C)NC(=O)[C@H](C)NC(=O)[C@H](Cc1ccccc1)NC(=O)OC(C)(C)C (some centres not stated) |  |  |  |  |  |  |  | 3.8 | 
20 | CC(C)CCS(=O)(=O)CC[C@H](O)[C@H](CC(C)C)NC(=O)[C@H](C)NC(=O)[C@H](Cc1ccccc1)NC(=O)OC(C)(C)C |  |  |  |  |  |  |  | 2.4 | 
21 | CC(C)C[C@H](NC(=O)[C@H](C)NC(=O)[C@H](Cc1ccccc1)NC(=O)OC(C)(C)C)[C@@H](O)CCS(=O)(=O)CCc1ccccc1 |  |  |  |  |  |  |  | 1.8 | 
22 | CC(C)CC[S+]([O-])CC[C@H](O)[C@H](CC(C)C)NC(=O)[C@H](C)NC(=O)[C@H](Cc1ccccc1)NC(=O)OC(C)(C)C (some centres not stated) |  |  |  |  |  |  |  | 5.2 | 
23 | CC(C)C[C@H](NC(=O)[C@H](C)NC(=O)[C@H](Cc1ccccc1)NC(=O)OC(C)(C)C)[C@@H](O)CCS(=O)(=O)C(C)C |  |  |  |  |  |  |  | 1.6 | 
